Like-named read-outs stand apart in the source and are kept apart here.
Key:
[1] = Sitagliptin pharmacokinetics published in the literature; assay type: in vivo, human; details: comparison with ref 9
[2] = Sitagliptin plasma pharmacokinetics in adults after single-unit UCB HCT; assay type: in vivo, human
[3] = cited from earlier work
[4] = 600 mg OD, HCT population; ref Farag, S.S. et al. [9]; cited from earlier work
[5] = system: engraftment of single unit UCB transplants; details: single unit UCB HCT, sitagliptin 600 mg OD days −1 to +2; cited from earlier work
[6] = cited from earlier work; remark: listed apart in the source
[7] = bootstrap analysis median [5 – 95th percentiles], 200 data sets
[8] = population estimate (RSE%), 600 mg OD oral, HCT patients
[9] = 83 mg OD, ref Vincent, S.H. et al. [12]
[10] = 100 mg OD, ref Herman, G.A. et al. [14]
[11] = 100 mg OD, ref Kim, B.H. et al. [13]
[12] = 200 mg BID, ref Herman, G.A. et al. [16]
[13] = 600 mg OD, ref Bergman, A.J. et al. [10]
[14] = 600 mg OD, ref Herman, G.A. et al. [11]

SMILES: N[C@@H](CC(=O)N1CCn2c(nnc2C(F)(F)F)C1)Cc1cc(F)c(F)cc1F [sitagliptin]
- clearance (dose/AUC0-∞) in non-HCT populations lower than in HCT (Farag et al.) [1]: 50%
- VC/F (second line so labelled, row r8) [2, 7]: 207.51 [160.11 – 249.82] L
- ka [2, 7]: 0.22 [0.20 – 0.25] h^−1
- Vd/F ([2]; human, plasma, po, 600 mg): 176 L
- sitagliptin pharmacokinetics in the HCT population lower than published profiles ([2]; in vivo): ~ 50%
- CL/F, total apparent oral clearance [2, 8]: 84.79 (11.91) L/h
- Q/F, inter-compartmental distribution clearance [2, 8]: 14.29 (13.25) L/h
- VC/F (second line so labelled, row r8) [2, 8]: 217.62 (13.19) L
- ka, first order rate constant of absorption [2, 8]: 0.22 (7.47) h^−1
- AUC0-∞ [3, 9]: 2460.15 ng·h/mL
- Cmax [3, 9]: 309.14 ng/mL
- AUC0-∞ ([3]; 100 mg OD, ref Bergman, A. et al. [15]): 3470.28 ng·h/mL
- AUC0-∞ ([3]; 100 mg OD, ref Bergman, A. et al. [17]): 3217.74 ng·h/mL
- AUC0-∞ [3, 10]: 3523.23 ng·h/mL
- Cmax [3, 10]: 390.61 ng/mL
- AUC0-∞ [3, 11]: 2407.23 ng·h/mL
- Cmax [3, 11]: 383.17 ng/mL
- AUC0-12 (column AUC0-∞, footnote b) [3, 12]: 5987.45 ^b ng·h/mL
- Cmax [3, 12]: 928.66 ng/mL
- AUC0-24 (column AUC0-∞, footnote a) [3, 13]: 22772.81 ^a ng·h/mL
- Cmax [3, 13]: 3156.65 ng/mL
- AUC0-∞ [3, 14]: 22402.05 ng·h/mL
- Cmax [3, 14]: 3437.7 ng/mL
- renal elimination ([3]; glomerular filtration and active secretion): 87%
- administered dose metabolized via CYP3A and 2C8 ([3]; healthy volunteers and patients with type 2 diabetes mellitus): 16%
- bioavailability ([3]; healthy volunteers): 87%
- AUC0-∞ [4]: 11661 ng·h/mL
- Cmax [4]: 1690 ng/mL
- median time to engraftment [5]: 21 days
- protein-bound [6]: 34–46%
